The source of these data is US20190209548A1, “LINKED DIARYL COMPOUNDS WITH ANTICANCER PROPERTIES AND METHODS OF USING THE SAME” (University of Maryland, College Park, priority 2014, published 2019).

A word on the IC50: it is the concentration that gives 50% inhibition.

For one assay, the system named is c-kit1. Description: 1H-NMR of c-kit1 with ligand. The class given is binding. The note with it: ligand 150 μM, DNA 300 μM. How it is done:
(§1) NMR measurements for DNA binding of triazene ligands. The procedure was followed as described previously. The ligand concentration was 150 μM, and that of the DNA (c-kit1 or 8 bp AT) was […]. The buffer used was 10 mM potassium phosphate (pH 7.5) containing 137 mM NaCl, 1 mM EDTA, and also contained 10% D2O. The sample was initially heated up to 95° C. for 5 min without the ligand and then cooled down to room temperature in 15 min. Subsequently, the sample was incubated at 4° C. for ˜12 h without the ligand (for G-quadruplex formation). Then, the ligand was added and incubated for 2 h before the NMR measurement (25° C.).
(§2) NMR of DNA/DNA analogue complexes. NMR of spectra (c-kit1 or 8 bp A T) in absence or presence of ligands were obtained following precedent. The sample solution containing c-kit1 (300 μM), D2O (10%, v/v), NaCl (137 mM), EDTA (1 mM) and potassium phosphate buffer (10 mM, pH 7.5) was heated up to 95° C. for 5 min, then cooled down to room temperature, and subsequently incubated for another 12 hours at 4° C. The DMZ analogue (150 μM) was then added and incubated for 2 hours at 4° C. The ^1H NMR spectra were recorded at 25° C., using NaOAc as an internal standard (NaOAc was in a sealed capillary tube that was inserted in the NMR tube). The ^1H NMR spectra was recorded on Bruker Avance III HD 800 MHz spectrometer with a CPQCI cryoprobe.

A further assay has as its system 8 bp AT. In words: 1H-NMR of duplex DNA with ligand. The format is binding. The conditions noted are these: ligand 150 μM, DNA 300 μM. The procedure: as §1, §2
The test system of the next assay is F21T. In words: FRET melting assay, F21T. The format is binding. The conditions noted are these: dual-labeled DNA 0.2 μM, DMZ analogues 1 μM, potassium cacodylate 60 mM pH 7.2. How it is done:
(§3) Fluorescence resonance energy transfer (FRET) assay to determine Tm in absence and presence of ligands. Dual-labelled DNA was diluted from stock (50 μM) to 400 nM in 60 mM potassium cacodylate buffer (pH 7.2) and then annealed by heating at 85° C. for 10 min followed by cooling to room temperature in the heating block. Compounds were diluted from stock (20 mM in DMSO) to 2 μM in 60 mM cacodylate buffer (pH 7.2). 25 μL annealed DNA was added to 96-well plate followed by 25 μL diluted compounds. The sequences of labelled oligonucleotides were as follows: F21T 21-mer (5′-FAM-GGGTTAGGGTTAGGGTTAGGG-TAMRA-3′) (SEQ ID NO:11), c-kit2 26-mer (5′-FAM-CCCGGGCGGGCGCGAGGGAGGGGAGG-TAMRA-3′) (SEQ ID NO:12), k-RAS21R 21-mer (5′-FAM-AGGGCGGTGTGGGAAGAGGGA-TAMRA-3′) (SEQ ID NO:13), c-MYC 22-mer (5′-FAM-TGAGGGTGGGTAGGGTGGGTAA-TAMRA-3′) (SEQ ID NO:14) and duplex 26-mer (5′-FAM-TATAGCTATATTTTTTTATAGCTATA-TAMRA-3′) (SEQ ID NO: 15). Measurements were made in triplicate by using a LightCycler 480 System RT-PCR machine (Roche) and average values were reported. Fluorescence readings were made with excitation at 450-495 nm and detection at 515-545 nm, taken at intervals of 1.2° C./min in the range 25° C. to 95° C.

In another assay the test system is c-MYC. In words: FRET melting assay, c-MYC. The class given is binding. The note with it: dual-labeled DNA 0.2 μM, DMZ analogues 1 μM, potassium cacodylate 60 mM pH 7.2. How it is done:
as §3

The subject of the next assay is c-kit2. In words: FRET melting assay, c-kit2. The class given is binding. The note with it: dual-labeled DNA 0.2 μM, DMZ analogues 1 μM, potassium cacodylate 60 mM pH 7.2. How it is done:
as §3

For another assay, the system named is k-RAS21R. In words: FRET melting assay, k-RAS21R. The class given is binding. The note with it: dual-labeled DNA 0.2 μM, DMZ analogues 1 μM, potassium cacodylate 60 mM pH 7.2. The procedure:
as §3

A further assay deals with duplex. In words: FRET melting assay, duplex DNA. The format is binding. The conditions noted are these: dual-labeled DNA 0.2 μM, DMZ analogues 1 μM, potassium cacodylate 60 mM pH 7.2. The procedure:
as §3

The next assay has as its system OVCAR-3. In words: WST-1 IC50 determination, OVCAR-3. The format is cell-based, human. The note with it: 72 hours, WST-1; for IC50: read-out: Anticancer activity IC50 ± SD, OVCAR-3. A general note: Tetrazolium dyes change colour on reduction, which living cells bring about.
The subject of the next assay is PC-3. Description: WST-1 IC50 determination, PC-3. The class given is cell-based, human. The note with it: 72 hours, WST-1; for IC50: read-out: Anticancer activity IC50 ± SD, PC-3.
The next assay concerns MDA-MB-231. Description: WST-1 IC50 determination, MDA-MB-231. The format is cell-based, human. The note with it: 72 hours, WST-1; for IC50: read-out: Anticancer activity IC50 ± SD, MDA-MB-231.
The subject of another assay is c-MYC Pu27. In words: PCR stop assay, Pu27 template. The format is biochemical. How it is done: (§4) PCR Stop Assay. This assay was performed by modifying a previously published protocol.
(§5) To the PCR reaction mixture (25 μL), 1×PCR buffer (New England Biolabs), 5 μM Pu27 and Pu27rev oligomers, various concentrations of ligands (DMZ, TMPyP4, DMZ1, DMZ9 and DMZ13) were added and incubated at 4° C. for 6 h. After that, 1 mM dNTPs, 5 units of Taq DNA polymerase (New England Biolabs) were added and PCR reactions were performed in a thermocycler, with the following conditions: 94° C. for 3 min, followed by 20 repeated cycles each having 94° C. for 30 s, 58° C. for 30 s, and 72° C. for 30 s. After PCR, amplified products were analyzed on 12% polyacrylamide gel with 1×TBE and SYBR Gold stained. This assay was also performed under the same conditions with Pu27-13,14 and Pu27rev.

The test system of the next assay is Pu27-13,14. Description: PCR stop assay, mutated control template. The class given is biochemical. How it is done: as §4, §5

Where “and” joins values, the source holds several entries; their conditions need not be identical. Equal entries are not always repeated. Where two headings read alike, the source gives them in different places.

On to `N=C(N)c1ccc(N=NNc2cccc(C#Cc3ccc(F)cc3)c2)cc1` [DMZ9], for which the “change of c-kit1 imino proton NMR spectrum” value in the assay with c-kit1 was “changes in peak positions and shapes”. Besides, the “change of duplex DNA imino proton NMR spectrum” value in the assay on 8 bp AT was “no change was observed”. Also, in the assay on F21T, the “ΔTm F21T” value is 4.20 ± 0.00 °C. In addition, in the assay on c-MYC, the “ΔTm c-MYC” value is 8.22 ± 0.45 °C. Besides, the “ΔTm c-kit2” value in the assay on c-kit2 worked out at 5.67 ± 0.26 °C. The “ΔTm k-RAS21R” value with k-RAS21R was 6.58 ± 1.29 °C. In the assay on duplex, the ΔTm duplex result was “NE (NE means not effective binding (ΔTm < 1° C.))”. The half-inhibitory concentration (IC50) with OVCAR-3 stood at 5 ± 0.1 µM; with PC-3, 5.3 ± 1.6 µM; in the assay on MDA-MB-231, 5.5 ± 0.1 µM. The “polymerization/extension of oligomers Pu27 and Pu27rev” value (“polymerization/extension” for short) with c-MYC Pu27 (100 μM compound) was “completely inhibited”. Also, the “PCR product with non-G-quadruplex template” value in the assay with Pu27-13,14 (100 μM compound) is listed as “amplified PCR product was observed”.

Take `N=C(N)c1ccc(NN=Nc2ccccc2)cc1` [DMZ1]: in the assay with c-kit1, the “change of c-kit1 imino proton NMR spectrum” value was “direct binding”. The “change of duplex DNA imino proton NMR spectrum” value in the assay on 8 bp AT was “only DMZ (but not Triazene-1) showed considerable changes”. Also, in the assay with F21T, the “ΔTm F21T” value is 4.20 ± 0.00 °C. The “ΔTm c-MYC” value in the assay on c-MYC amounted to 7.87 ± 0.53 °C. In addition, the “ΔTm c-kit2” value in the assay on c-kit2 was 6.40 ± 0.26 °C. For the same compound, the “ΔTm k-RAS21R” value in the assay with k-RAS21R is 5.47 ± 0.93 °C. Besides, the “Anticancer activity IC50 ± SD, OVCAR-3” value in the assay on OVCAR-3 is “NE (NE means not effective. Cell viability was the same or greater than 75% of the DMSO control at 20 μM compound concentration.)”. Also, in the assay with PC-3, the “Anticancer activity IC50 ± SD, PC-3” value is “NE (NE means not effective. Cell viability was the same or greater than 75% of the DMSO control at 20 μM compound concentration.)”. Further, the “Anticancer activity IC50 ± SD, MDA-MB-231” value in the assay with MDA-MB-231 was “NE (NE means not effective. Cell viability was the same or greater than 75% of the DMSO control at 20 μM compound concentration.)”.

Regarding `N=C(N)c1ccc(/N=N/Nc2ccccc2C#Cc2ccc(F)cc2)cc1` [DMZ13], in the assay with c-kit1, the “change of c-kit1 imino proton NMR spectrum” value was “changes in peak positions and shapes”. For the same compound, in the assay on 8 bp AT, the “change of duplex DNA imino proton NMR spectrum” value is “no change was observed”. In addition, the “ΔTm F21T” value in the assay on F21T was 4.20 ± 0.00 °C. In the assay on c-MYC, the “ΔTm c-MYC” value is 7.15 ± 0.00 °C. Also, the “ΔTm c-kit2” value with c-kit2 worked out at 5.12 ± 0.26 °C. Also, the “ΔTm k-RAS21R” value with k-RAS21R turned out to be 2.01 ± 0.00 °C. Also, the ΔTm duplex result with duplex is on record as “NE (NE means not effective binding (ΔTm < 1° C.))”. Further, the IC50 with OVCAR-3 amounted to 9.5 ± 2.2 µM; in the assay with PC-3, 7.4 ± 0.2 µM; in the assay on MDA-MB-231, 6.2 ± 1 µM. Besides, the “polymerization/extension” value with c-MYC Pu27 (100 μM compound) is listed as “completely inhibited”. Moreover, the “PCR product with non-G-quadruplex template” value in the assay with Pu27-13,14 (100 μM compound) was “amplified PCR product was observed”.

For the compound `N=C(N)c1ccc(/N=N/Nc2ccc(C(=N)N)cc2)cc1` [DMZ, Diminazene aceturate, reference compound], the “change of c-kit1 imino proton NMR spectrum” value in the assay on c-kit1 is “direct binding”. In addition, the “change of duplex DNA imino proton NMR spectrum” value with 8 bp AT was “considerable changes in the imino region”. For the same compound, the “ΔTm F21T” value with F21T is 10.05 ± 0.52 °C. Moreover, the “ΔTm c-MYC” value with c-MYC came to 12.97 ± 0.26 °C. In addition, the “ΔTm c-kit2” value in the assay with c-kit2 was determined as 11.70 ± 0.26 °C. The “ΔTm k-RAS21R” value in the assay with k-RAS21R was 18.3 °C and 18.27 ± 0.52 °C. Further, the ΔTm duplex in the assay with duplex was 6.4 °C. Also, the concentration for half-maximal inhibition (IC50) with OVCAR-3 (Homo sapiens, OVCAR-3) is above 25 µM. Further, the “Anticancer activity IC50 ± SD, PC-3” value in the assay with PC-3 is “NE (NE means not effective. Cell viability was the same or greater than 75% of the DMSO control at 20 μM compound concentration.)”. Further, the “Anticancer activity IC50 ± SD, MDA-MB-231” value with MDA-MB-231 was “NE (NE means not effective. Cell viability was the same or greater than 75% of the DMSO control at 20 μM compound concentration.)”. Moreover, in the assay on c-MYC Pu27 (25 μM compound), the “polymerization/extension” value is on record as “showed inhibition”. The “PCR product with non-G-quadruplex template” value in the assay on Pu27-13,14 (25 μM compound) is reported as “amplified PCR product was observed”.
